In patent US20050065064A1, “Identification of allosteric peptide agonists of CXCR4” (priority 2002, published 2005):
Blank lines part the entries; values can stand above or below the compound they belong to. Where a SMILES comes first, the peptide text is derived from it.

Legend:
[1] = molecular target: T1, CXCR4 (Homo sapiens, UniProt P61073); test: Yeast growth / colony formation in histidine-deficient medium (FUS1-HIS3); assay type: cell-based; design: The plasmid Cp4181 contains the CXCR4 gene under the control of the constitutive phosphoglycerate kinase (PGK1) promoter; expressed in transfected cells; host or cells: Saccharomyces cerevisiae CY12946 derivatives YAS2 / YAS3 (plasmid Cp4181)
Protocol: All basic media were prepared essentially as described (24). In cases where plasmid selection was necessary, media that lacked uracil, leucine, or tryptophan or an appropriate combination of these nutrients were employed. Library screening was performed in plates that lacked histidine and contained 3-amino-1,2,4-triazole (Sigma), which suppresses the basal level of histidine biosynthesis due to the activity of the FUS1 promoter.
A number of genes for biosynthetic enzymes have been mutated to allow selection of the corresponding marker on a plasmid transformed into the yeast strain. The genomic HIS3 gene, coding for an enzyme essential for the biosynthesis of histidine, has been disrupted by an insertion. The wild-type HIS3 gene has been placed under the control of the pheromone-responsive FUS1 promoter; as a result activation of CXCR4 enables cells to grow in media lacking histidine. To reduce false positives due to any basal activity of FUS1-HIS3,3-amino-1,2,4-triazole, an inhibitor of the enzyme coded by HIS3, is present at low levels in the media during agonist selection. […] Furthermore, the CXCR4 antagonist AMD3100 (34) inhibited YAS2 colony formation (data not shown) and β-galactosidase activity in response to SDF-1α (FIG. 2C).
Target sequence in this assay (P61073 whole entry): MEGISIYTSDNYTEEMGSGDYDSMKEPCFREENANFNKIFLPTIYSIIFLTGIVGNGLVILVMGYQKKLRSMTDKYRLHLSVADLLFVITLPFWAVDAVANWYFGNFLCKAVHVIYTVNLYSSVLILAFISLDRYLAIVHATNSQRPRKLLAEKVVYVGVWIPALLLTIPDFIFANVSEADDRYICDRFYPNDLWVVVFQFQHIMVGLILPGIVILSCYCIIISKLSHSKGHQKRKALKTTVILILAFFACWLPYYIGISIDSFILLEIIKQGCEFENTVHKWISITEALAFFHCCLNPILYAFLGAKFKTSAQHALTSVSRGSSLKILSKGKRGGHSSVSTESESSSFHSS

[2] = references (55), (56); cited from earlier work
[3] = tested on: HIV-1; settings: in vitro; reference (58); cited from earlier work
[4] = molecular target: T1, CXCR4; test: β-galactosidase assay in yeast expressing CXCR4 (FUS1-lacZ reporter); assay type: cell-based; design: The plasmid Cp4181 contains the CXCR4 gene under the control of the constitutive phosphoglycerate kinase (PGK1) promoter; expressed in transfected cells; host or cells: Saccharomyces cerevisiae CY12946 derivatives YAS2 / YAS3 (plasmid Cp4181)
Source text: The initial S. cerevisiae strain was CY12946 (MATα FUS1p-HIS3 GPA1Gαi2(5) canI farIΔI442 his3 leu2 sst2Δ2 ste14::trp1::LYS2 ste3Δ1156 tbt1-1 trp1 ura3) (23). Except for the specific chimeric Ga subunit expressed, CY12946 is genetically similar to CY1141, reported in Klein et al. (18), with two differences. First, the two strains express different Gα subunits. Specifically, CY12946 expresses a chimeric Gα subunit (GPA1Gαi2(5)) in which the C-terminal 5 amino acids of the yeast Ga subunit, GPA1, are replaced by the C-terminal 5 residues of Gαi2. In contrast, as described by Klein et al. (18), CY1141 expresses a chimeric Ga subunit (GPA1(41)Gαi2) in which the N-terminal 33 residues of Gαi2 are replaced by the 41 N-terminal residues of GPA1. We have used CY12946 in the current report because GPA1Gαi2(5) is more efficient than GPA1(41)Gαi2 in coupling CXCR4 to the pheromone response pathway. The use of GPA1Gαi2(5) necessitated deletion of SST2, which down-regulates the pheromone response pathway by accelerating the GTPase activity of GPA1. Thus, the second difference between CY12946 and CY1141 is the presence of an sst2 deletion allele in CY12946. All plasmids were 2μ-derived and contained a REP3 element for autonomous replication in S. cerevisiae and AmPR for selection in Escherichia coli. The plasmid Cp4181 contains the CXCR4 gene under the control of the constitutive phosphoglycerate kinase (PGK1) promoter and a LEU2 selectable marker. […] It also contains the TRP1 selectable marker. Cp6160 expresses full length wild-type SDF-1α in yeast under the control of the constitutive alcohol dehydrogenase (ADH1) promoter. The α-factor signal sequence is cloned at the 5′-end of the SDF sequence to allow secretion of the mature polypeptide. The vector also has the URA3 selectable marker allowing transformed cells to grow in media deficient in uracil. For expression of the 17-mer peptide library, Cp6293 was used. This URA3+plasmid was derived from Cp6160 and contains a frameshift in the SDF-1α sequence so that no functional protein is expressed unless an insert is appropriately cloned. The cDNA coding for 17-mer peptides was cloned using the restriction sites HindIII and Acc65I, which also results in the secretion of the mature peptide. S. cerevisiae strains YAS1, YAS2, YAS3 were constructed by transforming CY12946 with Cp1584, Cp1584/Cp4181 and Cp1584/Cp4181/Cp6160, respectively.
The liquid beta-galactosidase assays were performed essentially as described in (24) or (27) with the following modification. After growth in the appropriate medium, 5 ml of cells displaying the agonist phenotype were centrifuged (2500 rpm for 5 min) and resuspended in 0.5 ml as described (28).
To identify allosteric peptide agonists or modulators of CXCR4, it was necessary to establish an assay that could isolate molecules with the desired properties from a large peptide library. The screen that was used consisted of two steps. The first step was to isolate peptide sequences from a synthetic cDNA library that would allow cells to grow only after activation of CXCR4. A second step was required that would segregate agonists that bind to the native active site from those that bind to allosteric sites. This step involved an agonist assay in the presence of a receptor antagonist. A number of genetic modifications made to S. cerevisiae allowed it to be used for monitoring the interactions of peptides or proteins with CXCR4 (FIG. 1). […]
Target sequence in this assay (P61073 whole entry): as above

[5] = molecular target: T1, CXCR4; test: Flow cytometry of CXCR4 surface levels (12G5 indirect staining); assay type: cell-based
Protocol: Flow cytometric analysis of cell subpopulations was performed using a FACS Vantage flow cytometer (Becton-Dickinson Immunocytometry Systems, San Jose, Calif.) for detection of CXCR4 surface expression with the 12G5 monoclonal antibody. An indirect staining protocol was used. Briefly, after a 90 min incubation with various agents, the cells were washed and resuspended in PBS. Nonspecific (Fc-mediated) binding was blocked using purified rat IgG. The primary antibody (12G5, a mouse IgG2a antibody) was added at 1 μg/ml for 45 min. After centrifugation the cells were resuspended in PBS and the secondary antibody (FITC-linked rat anti-mouse IgG2a) was added at 10 μg/ml for 45 min. The cells were fixed with 2% formaldehyde (in PBS) and used within 2 days for data acquisition. Mouse IgG2a was used as an isotype control. For the fluorescence measurements the cells were excited at 488 nm. The FITC fluorescence was collected through a 530/30 nm band pass filter. A minimum of 15,000 cells were examined for each sample. Analysis of data was performed using the CellQuest software (Becton-Dickinson).
Target sequence in this assay (P61073 whole entry): as above

[6] = tested on: CCRF-CEM cells; test: Chemotaxis assay (transwell) on CCRF-CEM cells; assay type: cell-based, human
Protocol: The CCRF-CEM acute lymphoblastic leukemia cell line was previously shown to express CXCR4 and to migrate in response to SDF-1α (31). The procedure involved cells that were ˜70-80% confluent and were centrifuged at 1000 rpm for 5 min and resuspended at a concentration of ˜10^7 cells/ml. The transwell system (Corning-Costar^R) was used for quantifying the chemotactic response. Six hundred μl of solution with different concentrations of a CXCR4 agonist were added to the bottom of the wells of 24-well culture plates. One hundred μl of the cell suspension was aliquoted in the transwell cups and inserted in the wells. The bottom of the cups is layered with a membrane that has a 5 μm pore size and allows cell movement towards the higher concentration of chemoattractant. The cells were incubated for 2h at 37° C., after which the migrated cells were collected and counted with an electronic particle counter (Coulter^R). In cases where the effect of neutralization by CXCR4 monoclonal antibodies or antagonists was examined, the inhibitor was added to the upper compartment along with the cells.

[7] = molecular target: T1, CXCR4; settings: reference (31); cited from earlier work
Target sequence in this assay (P61073 whole entry, species assumed): as the sequence (P61073 whole entry) above

[8] = tested on: CXCR4; test: β-galactosidase assay in yeast expressing CXCR4 (FUS1-lacZ reporter); assay type: cell-based, human; settings: yeast lacking CXCR4; data not shown
Source text: The initial S. cerevisiae strain was CY12946 (MATα FUS1p-HIS3 GPA1Gαi2(5) canI farIΔI442 his3 leu2 sst2Δ2 ste14::trp1::LYS2 ste3Δ1156 tbt1-1 trp1 ura3) (23). Except for the specific chimeric Ga subunit expressed, CY12946 is genetically similar to CY1141, reported in Klein et al. (18), with two differences. First, the two strains express different Gα subunits. Specifically, CY12946 expresses a chimeric Gα subunit (GPA1Gαi2(5)) in which the C-terminal 5 amino acids of the yeast Ga subunit, GPA1, are replaced by the C-terminal 5 residues of Gαi2. In contrast, as described by Klein et al. (18), CY1141 expresses a chimeric Ga subunit (GPA1(41)Gαi2) in which the N-terminal 33 residues of Gαi2 are replaced by the 41 N-terminal residues of GPA1. We have used CY12946 in the current report because GPA1Gαi2(5) is more efficient than GPA1(41)Gαi2 in coupling CXCR4 to the pheromone response pathway. The use of GPA1Gαi2(5) necessitated deletion of SST2, which down-regulates the pheromone response pathway by accelerating the GTPase activity of GPA1. Thus, the second difference between CY12946 and CY1141 is the presence of an sst2 deletion allele in CY12946. All plasmids were 2μ-derived and contained a REP3 element for autonomous replication in S. cerevisiae and AmPR for selection in Escherichia coli. […]

Compound: c1cc(CN2CCCNCCNCCCNCC2)ccc1CN1CCCNCCNCCCNCC1 [AMD3100, reference compound]
YAS2 colony formation ([1]; in response to SDF-1α, data not shown): inhibited
toxicity / adverse effects in clinical trials [2]: cardiac toxicity
interaction between T-20 and AMD3100 [3]: strong in vitro synergy
effect on basal level of the pheromone-responsive Fus1 promoter ([4]; AMD3100 1 μM (FIG. 2C)): does not effect the basal level
inhibition of β-galactosidase activity in response to SDF-1α ([4]; AMD3100 1 μM, SDF-1α 100 nM (FIG. 2C)): inhibited

effect on CXCR4 levels on the cell surface ([5]; 90 min incubation, SDF-Fc 1 μM, RSVM 200 μM, ASLW 100 μM (FIG. 8A-C)): only aminor decrease
EC50 ([6]; CCRF-CEM cells (FIG. 4A, 4B), read-out: apparent EC50, chemotaxis): > 60000 nM
resistance of β-galactosidase activity to AMD3100 ([4]; peptide-expressing yeast clones): resistance to AMD3100
Compound: CC(C)C[C@H](NC(=O)[C@H](CO)NC(=O)[C@H](C)N)C(=O)N[C@@H](Cc1c[nH]c2ccccc12)C(=O)N[C@@H](CC(C)C)C(=O)N[C@@H](CO)C(=O)N[C@@H](Cc1ccc(O)cc1)C(=O)N[C@@H](CCCNC(=N)N)C(=O)N[C@@H](CS)C(=O)N1CCC[C@H]1C(=O)N[C@@H](CS)C(=O)N[C@@H](CCCNC(=N)N)C(=O)N[C@@H](Cc1ccccc1)C(=O)N[C@@H](Cc1ccccc1)C(=O)N[C@@H](CCC(=O)O)C(=O)N[C@@H](CO)C(=O)N[C@@H](Cc1c[nH]cn1)C(=O)O [ASLW] (H-ASLWLSYRCPCRFFESH-OH; N-terminus and C-terminus assumed)
concentration dependence of the effect on CXCR4 surface levels ([5]; FIG. 8D, 8E): No significant concentration-dependent response
agonist character in chemotaxis (chemotactic index relative to SDF-Fc) ([6]; CCRF-CEM cells): superagonist activity
chemotactic activity combined with SDF-Fc ([6]; CCRF-CEM cells (FIG. 4D)): approximately additive
chemotaxis in the presence of the two peptide agonists ASLW and RSVM ([6]; CCRF-CEM cells (FIG. 4E)): additive
effect of AMD3100 on chemotactic activity of the agonist ([6]; CCRF-CEM cells, AMD3100 up to 100 μg/ml (~115 μM)): Strong resistance to inhibition
effect of T140 on chemotactic activity of the agonist ([6]; CCRF-CEM cells, T140 up to concentrations comparable to the agonists): does not inhibit
effect of antibody 44717.111 on chemotactic activity of the agonist ([6]; CCRF-CEM cells, up to 50 μg/ml for the peptides, ten-fold lower for SDF-Fc): neither RSVM- nor ASLW-mediated chemotactic activity is significantly affected
β-galactosidase activity on endogenous expression of the peptide ([4]; yeast strains with or without CXCR4 (FIG. 3)): significant increase of β-galactosidase activity only in the strain that co-expresses CXCR4

response of strain without the receptor (YAS 1) [8]: does not respond
Compound: SDF-1α
growth in the absence of histidine ([1]; endogenously expressed SDF-1α, strain expressing CXCR4 (FIG. 2A)): allows the strain expressing CXCR4 to grow in the absence of this amino acid
EC50 [7]: 1 to 10 nM
induction of β-galactosidase activity ([4]; HIS3-/CXCR4+ yeast with FUS1-lacZ, SDF-1α 100 nM, D-SDF-1α 100 nM, 14-mer 1 μM (FIG. 2B)): induces an increase of β-galactosidase activity
